Reference: BindingDB's records for doi:10.1021/jm00391a032 (1987)
pIC50: −log10 of the molar value.

Target: Beta-lactamase/penicillinase (Bacillus sp.)
Assay: Inhibitory activity against Beta-lactamase from Bacillus sp. using penicillin G as substrate

Row | Structure (SMILES) | pIC50
1 | CCOC(=O)c1cnnn1C[C@@]1(C)[C@H](C(=O)O)C2C(=O)CC2S1(=O)=O (some centres not stated) | 6.47
2 | COC(=O)c1nnn(C[C@@]2(C)[C@H](C(=O)O)C3C(=O)CC3S2(=O)=O)c1C(=O)OC (some centres not stated) | 6.52
3 | COC(=O)c1cnnn1C[C@@]1(C)[C@H](C(=O)O)C2C(=O)CC2S1(=O)=O (some centres not stated) | 6.52
4 | CCOC(=O)c1cn(C[C@@]2(C)[C@H](C(=O)O)C3C(=O)CC3S2(=O)=O)nn1 (some centres not stated) | 7.27
5 | C[C@]1(Cn2cc(N)nn2)[C@H](C(=O)O)C2C(=O)CC2S1(=O)=O (some centres not stated) | 6.15
6 | C[C@]1(Cn2nncc2C(=O)O)[C@H](C(=O)O)C2C(=O)CC2S1(=O)=O (some centres not stated) | 5.77
7 | C[C@]1(Cn2cc([Si](C)(C)C)nn2)[C@H](C(=O)O)C2C(=O)CC2S1(=O)=O (some centres not stated) | 6.29
